Reference: a melting point compilation (Tetko et al.; mined from patent text by program, amines drawn as free bases though some values may be those of a salt)

Which melting point does the source give for `FC(F)(F)COc1nc(-c2ccccc2)c2cc(Cl)ccc2n1` here?
Its melting point is 185 to 186 °C.

For `CC(=O)c1ccc(C2=C(c3ccc(S(C)(=O)=O)cc3)OC(C)(C)C2=O)cc1`, which melting point is on record?
The melting point was 164 to 167 °C.

Which melting point does the source give for `COc1ccc(C)cc1NC(=O)Nc1ccc(N2CCC(C(=O)Nc3ncccc3C)CC2)cc1` here?
Its melting point is 200 to 203 °C.

With `CCOc1ccn([C@H]2CS[C@@H](CO)O2)c(=O)n1` (relative stereo) as the compound, how does the melting point read?
Its melting point is 117 to 118 °C.

With `COc1ccc(C(=O)Nc2ccccc2C(=O)c2ccccn2)cc1` as the compound, how does the melting point read?
Its melting point is 132 to 133 °C.

For `CC(C)c1ccc(C2c3[nH]c4ccccc4c3CCN2C(=O)C=Cc2cccc([N+](=O)[O-])c2)cc1` (stereo unspecified), which melting point is on record?
The melting point was 195 °C.

For `CCN(CC)C(=O)Oc1nc(C)c2cc(OC)c(OC)cc2c1N`, which melting point is on record?
Its melting point is 206 to 207 °C.

With `c1ccc(P(CC[Si](c2ccccc2)(c2ccccc2)c2ccccc2)c2ccccc2)cc1` as the compound, how does the melting point read?
The melting point was 128 to 131 °C.

With `CCCCCC(=O)Oc1ccc(-c2ccc(C#N)cc2)cc1` as the compound, how does the melting point read?
The melting point was 56.1 °C.

For `COc1cc(Nc2c(C#N)cnc3cc(OCC4CCCCO4)c(OC)cc23)c(Cl)cc1Cl` (stereo unspecified), which melting point is on record?
Its melting point is 193 to 196 °C.

With `COc1cc(N)ccc1-c1nc(-c2cccnc2)c(C)[nH]1` as the compound, how does the melting point read?
Its melting point is 95 to 100 °C.

With `O=C1NC(=O)C(c2cccc3ccccc23)O1` (stereo unspecified) as the compound, how does the melting point read?
The melting point was 188 to 189 °C.

For `NC(=O)C1CCN(Cc2ccc(-c3cc4ncnc(Nc5ccc6[nH]ccc6c5)c4s3)cc2)CC1`, which melting point is on record?
The melting point was 198 to 205 °C.

For `COc1ccc(-c2nc(Sc3ccccc3)n(Cc3ccccc3)c2-c2ccc(OC)cc2)cc1`, which melting point is on record?
Its melting point is 113 to 115 °C.

Which melting point does the source give for `O=C(N[C@H](Cc1ccc(C(F)(F)F)cc1)[C@@H](O)c1cccc(Oc2ccccc2)c1)c1ccc(F)c2ccccc12` (racemic) here?
Its melting point is 184 to 185 °C.

For `Fc1ccc(Nc2ncnc3[nH]c(-c4ccc(CCl)cc4)cc23)cc1Cl`, which melting point is on record?
Its melting point is > 300 °C.

Which melting point does the source give for `Fc1ccc(-n2nccc2NC2=NCCN2)cc1` here?
Its melting point is 195 to 197 °C.

With `C=C(C)C(=O)Nc1cccc(OC(=O)NC(C)(C)CC(C)(C)C)c1` as the compound, how does the melting point read?
The melting point was 118 to 120 °C.

Which melting point does the source give for `CS(=O)(=O)c1ccc(-n2cnc3ccc(-c4nnc(CC(F)(F)F)o4)cc32)cc1` here?
The melting point was 229 to 232 °C.

With `C=CCN1C2CCC1C1CCC2N1C(c1ccc(C(=O)NC2CCCCC2)cc1)c1cccc(OC)c1` (stereo unspecified) as the compound, how does the melting point read?
The melting point was 58 to 60 °C.

Which melting point does the source give for `O=c1[nH]c(N2CCCC(CO)C2)cc2ccccc12` (stereo unspecified) here?
The melting point was 143 to 144 °C.

Which melting point does the source give for `CCCCCCCCCCCCCCCC(=O)NC(C(=O)OC)C(O)CCCCCCCCCCCCCCC` (stereo unspecified) here?
The melting point was 80 °C.

For `COc1ccc2c(c1)CC[C@@H](O)[C@@H]2N1CCCC1` (relative stereo), which melting point is on record?
Its melting point is 79 to 80 °C.

Which melting point does the source give for `COc1ccc(C(=O)Nc2ccc(C(=O)NCc3ccccc3)cc2)cc1C12CC3CC(CC(C3)C1)C2` here?
The melting point was 279 to 280 °C.

With `COC(=O)C(C)(C)COc1ccc(CNC(=O)C2Cc3ccccc3N2S(=O)(=O)c2ccc(-c3ccccc3C(F)(F)F)cc2)cc1` (stereo unspecified) as the compound, how does the melting point read?
Its melting point is 68 to 75 °C.

For `Cc1c(OC(=O)C(C)(C)C)c(=O)ccn1C`, which melting point is on record?
Its melting point is 112 to 113 °C.

Which melting point does the source give for `CCOc1nc(NCc2ccco2)nc(Nc2ccccc2-c2cccnc2)n1` here?
Its melting point is 90 to 92 °C.

Which melting point does the source give for `O=C(O)c1cccc2c1Oc1c(cccc1C(=O)O)N2` here?
Its melting point is 146 °C.

For `COc1cccc(NC(=O)Nc2ccc(N3CCN(C(=O)Nc4ccc(OCCO)cc4C(F)(F)F)CC3)cc2)c1OC`, which melting point is on record?
Its melting point is 135 to 138 °C.

For `Cc1nsnc1-c1cccnc1`, which melting point is on record?
Its melting point is 55 to 57 °C.

For `O=C1C(CSC(=O)c2ccccc2)=C(CSC(=O)c2ccccc2)C(=O)C(CSC(=O)c2ccccc2)=C1CSC(=O)c1ccccc1`, which melting point is on record?
Its melting point is 224 to 226 °C.

With `O=C(CCc1c(C(=O)OCCN2CCOCC2)[nH]c2cc(Cl)cc(Cl)c12)OCCN1CCOCC1` as the compound, how does the melting point read?
The melting point was 110 to 112 °C.

With `CCOC(=O)C(=CNC1CC1)C(=O)c1cc(F)c(Cl)cc1Cl` as the compound, how does the melting point read?
The melting point was 89 to 90 °C.

Which melting point does the source give for `C=C(C(=O)OCC)c1cc(-c2cc3c(cc2C)C(C)(C)CCC3(C)C)ccc1OCOC` here?
Its melting point is 100 to 101 °C.

Which melting point does the source give for `COC(=O)C1CC(C#N)(c2ccccc2Cl)CCC1=O` (stereo unspecified) here?
Its melting point is 113 to 118 °C.

With `CCOc1cc(=O)oc2cc(CBr)ccc12` as the compound, how does the melting point read?
Its melting point is 150 to 153 °C.

Which melting point does the source give for `CC(C)Cn1c(=O)n(C)c(=O)c2c(Br)c(C(O)c3cccnc3)sc21` (stereo unspecified) here?
Its melting point is 132 °C.

With `CCCc1cc(C(O)=S)cc([N+](=O)[O-])c1-c1ccccc1` as the compound, how does the melting point read?
The melting point was 178 to 180 °C.

For `COc1cc(OC2OC(CO)C(O)C(O)C2O)ccc1C=Cc1cc(C=Cc2ccc3cc[nH]c3c2)n[nH]1` (stereo unspecified), which melting point is on record?
Its melting point is 194 to 199 °C.

For `Cc1sc(-c2ccccc2)nc1COc1ccc(COc2ncccc2C=O)cc1`, which melting point is on record?
Its melting point is 101 to 102 °C.

With `N#Cc1cccnc1N1CCN(CC(=O)Nc2ccccc2F)CC1` as the compound, how does the melting point read?
The melting point was 78 to 79 °C.

With `Cc1ccc(-c2csc(NC(=O)Nc3nc(-c4ccc(C)cc4)cs3)n2)cc1` as the compound, how does the melting point read?
The melting point was > 300 °C.

For `CCCCCCCc1ccc(-c2cnc(-c3ccc(OCCCCCC)c(F)c3)nc2)cc1`, which melting point is on record?
The melting point was 80.5 °C.

For `CC(=O)N1N=C(c2ccc(N)c(C)c2)c2cc3c(cc2C[C@H]1C)OCO3`, which melting point is on record?
The melting point was 123 to 130 °C.

With `CCC(=O)Oc1cccc2c1C(=O)c1c(OC(=O)CC)cccc1C2C(=O)CC(C)C` as the compound, how does the melting point read?
Its melting point is 124 °C.

For `Cc1onc(NS(=O)(=O)c2cccc3ccccc23)c1Br`, which melting point is on record?
Its melting point is 167 to 170 °C.

For `CCOC(=O)C(=O)Nc1c([N+](=O)[O-])sc2ccc(Br)cc12`, which melting point is on record?
Its melting point is 157 to 160 °C.

For `O=c1cc(O)cnn1Cc1ccccc1`, which melting point is on record?
Its melting point is 48 to 55 °C.

Which melting point does the source give for `CC(C)(O)CC(=O)N[C@H]1CC[C@H](CCN2CCC(c3cccc4c3CCO4)CC2)CC1` here?
The melting point was 168 °C.

For `O=C(c1ccccc1)N(c1ccccc1)c1ccc(OCCN2CCOCC2)cc1`, which melting point is on record?
Its melting point is 81.5 to 84.5 °C.

With `COc1ccc(CN(C)CCCSc2ccc(NC(=O)c3cccc4c(=O)c5cccc(SC)c5[nH]c34)cc2)cc1OC` as the compound, how does the melting point read?
The melting point was 142 °C.

With `CC1CCN(Cc2ccc(CCC(=O)Nc3ccc(-c4ccc(Cl)cc4)cc3)cc2)CC1` as the compound, how does the melting point read?
Its melting point is 150 to 151 °C.

For `COc1cccc(SSc2cccc(OC)c2S(N)(=O)=O)c1S(N)(=O)=O`, which melting point is on record?
Its melting point is 263 °C.

With `CC1(C)[C@@H]2CC[C@@]1(C)C[C@H]2OC(=O)C1CCC(C(=O)O[C@@H]2C[C@]3(C)CC[C@H]2C3(C)C)CC1` (stereo partly specified) as the compound, how does the melting point read?
The melting point was 77 °C.

For `CC(O)c1ccc(-c2ccc(OCc3ccc(Cl)cc3)cc2)cc1` (single isomer, unassigned; (+)), which melting point is on record?
Its melting point is 165 to 167 °C.

Which melting point does the source give for `CN1CCN(c2ccc(-c3[nH]nc4c3C(=O)c3c(NC(=O)NNC(=O)c5cccnc5)cccc3-4)cc2)CC1` here?
Its melting point is 238 °C.

Which melting point does the source give for `CN(C)c1cc2nc(C(C)(C)C)sc2cc1N=C=S` here?
Its melting point is 63 to 66 °C.

For `CSc1ccc(-c2cc(C(=O)O)nn2-c2ccc(F)cc2)cc1`, which melting point is on record?
The melting point was 199 to 200 °C.

Which melting point does the source give for `CCOc1noc(-c2nc[nH]n2)c1C` here?
Its melting point is 194 to 196 °C.

Which melting point does the source give for `COCCN(C1CC(C)(C)Oc2ccc(OCc3ccccc3)cc21)S(C)(=O)=O` (stereo unspecified) here?
Its melting point is 66 to 68 °C.

For `O=C(CCl)Nc1cc(C2(Cl)C=C(C(F)(F)F)C=NC2)ccc1O` (stereo unspecified), which melting point is on record?
The melting point was 205 °C.

Which melting point does the source give for `O=c1[nH]c2ccccc2c(=O)cc1NCCO` here?
Its melting point is 207 °C.

For `COc1cc(OC)nc(NC(=O)NS(=O)(=O)c2c(OC)ccc3snnc23)n1`, which melting point is on record?
The melting point was 120 to 129 °C.

Which melting point does the source give for `NC(=O)C1Cc2c([nH]c3ccccc23)CN1` (stereo unspecified) here?
Its melting point is 212 to 216 °C.

With `O=C(NCCCl)NC(c1cccc(C(F)(F)F)c1)C(F)(F)F` (stereo unspecified) as the compound, how does the melting point read?
Its melting point is 124 to 128 °C.

For `CCOC(=O)COn1c2c([nH]c(=O)c1=O)CCC1=C2C=C(n2ccc(CNC(=O)C(F)(F)F)c2)CC1`, which melting point is on record?
Its melting point is 199 °C.
